We go through 30 molecules from patent US20200261421A1, “HETEROCYCLIC COMPOUNDS AS HIV PROTEASE INHIBITORS” (Merck Sharp & Dohme Corp., priority 2016, published 2020).

For the test, the target named is T1, wild-type HIV-1 protease (Human immunodeficiency virus type 1 group M subtype B, UniProt P04585).
T1 construct: Escherichia coli expressed wild-type HIV-1 protease protein; made in house; host or cells: Escherichia coli
Briefly: Assay for Inhibition of Microbial Expressed HIV Protease. It counts as biochemical. To be noted: Escherichia coli expressed wild-type HIV-1 protease, peptide substrate cleavage; mean of at least two independent experiments. In outline:
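E. coli-expressed wild-type HIV-1 protease (20 pM) was preincubated with inhibitor for 30 min at room temperature in 50 mM sodium acetate pH 5.5, 100 mM NaCl, 0.1% BSA. It was then reacted with 400 μM peptide substrate for 1 h at 30 °C. Cleavage product was quantified by LC-MS/MS, and IC50 is the mean of at least two experiments.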

Turning to `COc1ccccc1CN(C)C(=O)c1cccc(CN2C(=N)NC(c3ccc(F)cc3)(c3ccc(F)cc3)C2=O)c1` [Example 61, 3-{[4,4-bis(4-fluorophenyl)-2-imino-5-oxoimidazolidin-1-yl]methyl}-N-(2-methoxybenzyl)-N-methylbenzamide], the IC50 (usually the concentration that gives 50% inhibition) amounted to 76.7 nM.

In turn, `CN(C)C(=O)c1cccc(CN2C(=N)NC(c3ccccc3)(c3ccc(Br)cc3)C2=O)c1` (stereo not drawn) [Example 62, 3-{[4-(4-bromophenyl)-2-imino-5-oxo-4-phenylimidazolidin-1-yl]methyl}-N,N-dimethylbenzamide] displayed an IC50 of 77.3 nM.

In the case of `CN(C)C(=O)c1cccc(CN2C(=N)NC(c3ccccc3)(c3cccc(-c4ccccc4)c3)C2=O)c1` (stereo not drawn) [Example 63, 3-[(4-biphenyl-3-yl-2-imino-5-oxo-4-phenylimidazolidin-1-yl)methyl]-N,N-dimethylbenzamide], the IC50 came to 83.4 nM.

Molecule `CN(Cc1ccc(Cl)cc1)C(=O)c1cccc(CN2C(=N)NC(c3ccc(F)cc3)(c3cccc(-c4cccc(C#N)c4)c3)C2=O)c1` (stereo not drawn) [Example 64, N-(4-chlorobenzyl)-3-{[4-(3'-cyanobiphenyl-3-yl)-4-(4-fluorophenyl)-2-imino-5-oxoimidazolidin-1-yl]methyl}-N-methylbenzamide] displayed an IC50 of 86.9 nM.

In turn, `CN(Cc1ccccc1F)C(=O)c1cccc(CN2C(=N)NC(c3ccc(F)cc3)(c3ccc(F)cc3)C2=O)c1` [Example 65, 3-{[4,4-bis(4-fluorophenyl)-2-imino-5-oxoimidazolidin-1-yl]methyl}-N-(2-fluorobenzyl)-N-methylbenzamide] gave a half-maximal inhibitory concentration (IC50) of 89.9 nM.

In turn, `CN(Cc1ccccc1Cl)C(=O)c1cccc(CN2C(=N)NC(c3ccc(F)cc3)(c3ccc(F)cc3)C2=O)c1` [Example 66, 3-{[4,4-bis(4-fluorophenyl)-2-imino-5-oxoimidazolidin-1-yl]methyl}-N-(2-chlorobenzyl)-N-methylbenzamide] yielded a half-maximal inhibitory concentration (IC50) of 90.5 nM.

Consider `N#Cc1ccc(CNC(=O)c2cccc(CN3C(=N)NC(c4ccc(F)cc4)(c4ccc(F)cc4)C3=O)c2)cc1` [Example 67, 3-{[4,4-bis(4-fluorophenyl)-2-imino-5-oxoimidazolidin-1-yl]methyl}-N-(4-cyanobenzyl)benzamide], for which 95.2 nM corresponded to half-maximal inhibition (IC50).

`CN(Cc1cccc(F)c1)C(=O)c1cccc(CN2C(=N)NC(c3ccc(F)cc3)(c3ccc(F)cc3)C2=O)c1` [Example 68, 3-{[4,4-bis(4-fluorophenyl)-2-imino-5-oxoimidazolidin-1-yl]methyl}-N-(3-fluorobenzyl)-N-methylbenzamide] yielded a half-inhibitory concentration (IC50) of 96.6 nM.

Consider `CC(C)CC1(c2cccc(F)c2)NC(=N)N(Cc2cccc(C(=O)N(C)Cc3ccc(C#N)cc3)c2)C1=O` (stereo not drawn) [Example 69, N-(4-cyanobenzyl)-3-{[4-(3-fluorophenyl)-2-imino-4-(2-methylpropyl)-5-oxoimidazolidin-1-yl]methyl}-N-methylbenzamide], for which the IC50 turned out to be 97.1 nM.

With `CC(C)CC1(CC(C)C)NC(=N)N([C@H](C)c2cccc(C(=O)N(C)Cc3ccc(F)cc3)c2)C1=O` [Example 70, N-(4-fluorobenzyl)-3-{(1R)-1-[2-imino-4,4-bis(2-methylpropyl)-5_ oxoimidazolidin-1-yl]ethyl}-N-methylbenzamide], half-maximal inhibition (IC50) required 99.1 nM.

Turning to `CC(C)CC1(c2ccccc2)NC(=N)N(Cc2ccc(Cl)c(C(=O)NCc3ccc(C#N)cc3)c2)C1=O` (stereo not drawn) [Example 71, 2-chloro-N-(4-cyanobenzyl)-5-{[2-imino-4-(2-methylpropyl)-5-oxo-4-phenylimidazolidin-1-yl]methyl}benzamide], the IC50 was 8.19 nM.

In turn, `CC(C)CC1(c2ccccc2)NC(=N)N(Cc2ccc(Cl)c(C(=O)NCc3ccc(F)cc3)c2)C1=O` (stereo not drawn) [Example 72, 2-chloro-N-(4-fluorobenzyl)-5-{[2-imino-4-(2-methylpropyl)-5-oxo-4-phenylimidazolidin-1-yl]methyl}benzamide] registered a 50% inhibitory concentration (IC50) of 9.5 nM.

`N=C1NC(c2ccccc2)(c2ccccc2)C(=O)N1Cc1ccc(Cl)c(C(=O)NCc2cnccn2)c1` [Example 73, 2-chloro-5-[(2-imino-5-oxo-4,4-diphenylimidazolidin-1-yl)methyl]-N-(pyrazin-2-ylmethyl)benzamide]: inhibition was half-maximal at 11 nM (IC50).

`N#Cc1ccc(CNC(=O)c2cc(CN3C(=N)NC(c4ccccc4)(c4ccccc4)C3=O)ccc2Cl)cc1` [Example 74, 2-chloro-N-(4-cyanobenzyl)-5-[(2-imino-5-oxo-4,4-diphenylimidazolidin-1-yl)methyl]benzamide] gave a half-maximal inhibitory concentration (IC50) of 11.4 nM.

For `CC(C)CC1(c2ccccc2)NC(=N)N(Cc2ccc(Cl)c(C(=O)NCc3cnccn3)c2)C1=O` (stereo not drawn) [Example 75, 2-chloro-5-{[2-imino-4-(2-methylpropyl)-5-oxo-4-phenylimidazolidin-1-yl]methyl}-N-(pyrazin-2-ylmethyl)benzamide], the IC50 was 31.3 nM. This IC50 is about 2.7-fold higher than that of the molecule before.

As to `CC(C)CC1(c2ccccc2)NC(=N)N(Cc2ccc(Cl)c(C(=O)N[C@H](C)c3ccc(F)cc3)c2)C1=O` (stereo partly drawn) [Example 76, 2-chloro-N-[(1R)-1-(4-fluorophenyl)ethyl]-5-{[2-imino-4-(2-methylpropyl)-5-oxo-4-phenylimidazolidin-1-yl]methyl}benzamide], it took 40.1 nM to reach half-maximal inhibition (IC50).

`COc1ccc(CN2C(=N)NC(c3ccccc3)(c3ccccc3)C2=O)cc1C(=O)N(C)[C@H](C)c1ccccc1` [Example 77, 5-[(2-imino-5-oxo-4,4-diphenylimidazolidin-1-yl)methyl]-2-methoxy-N-methyl-N-[(1R)-1-phenylethyl]benzamide] returned a half-inhibitory concentration (IC50) of 43.4 nM.

Molecule `COc1ccc(CN2C(=N)NC(c3ccccc3)(c3ccccc3)C2=O)cc1C(=O)N(C)Cc1ccc(F)cc1` [Example 78, N-(4-fluorobenzyl)-5-[(2-imino-5-oxo-4,4-diphenylimidazolidin-1-yl)methyl]-2-methoxy-N-methylbenzamide] came in with an IC50 of 53.6 nM.

As to `C[C@H](c1ccc(F)cc1)N(C)C(=O)c1cncc(CN2C(=N)NC(c3ccc(F)cc3)(c3ccc(F)cc3)C2=O)c1` [Example 79, 5-{[4,4-bis(4-fluorophenyl)-2-imino-5-oxoimidazolidin-1-yl]methyl}-N-[(1R)-1-(4-fluorophenyl)ethyl]-N-methylpyridine-3-carboxamide], it took 13.7 nM to reach half-maximal inhibition (IC50).

For `CN(Cc1ccc(F)cc1)C(=O)c1cncc(CN2C(=N)NC(c3ccc(F)cc3)(c3ccc(F)cc3)C2=O)c1` [Example 80, 5-{[4,4-bis(4-fluorophenyl)-2-imino-5-oxoimidazolidin-1-yl]methyl}-N-(4-fluorobenzyl)-N-methylpyridine-3-carboxamide], the IC50 was determined as 15.4 nM.

With `CN(Cc1ccc(Cl)cc1)C(=O)c1cncc(CN2C(=N)NC(c3ccc(F)cc3)(c3ccc(F)cc3)C2=O)c1` [Example 81, 5-{[4,4-bis(4-fluorophenyl)-2-imino-5-oxoimidazolidin-1-yl]methyl}-N-(4-chlorobenzyl)-N-methylpyridine-3-carboxamide], inhibition was half-maximal at 22.7 nM (IC50).

In turn, `CN(Cc1ccc(Cl)cn1)C(=O)c1cncc(CN2C(=N)NC(c3ccc(F)cc3)(c3ccc(F)cc3)C2=O)c1` [Example 82, 5-{[4,4-bis(4-fluorophenyl)-2-imino-5-oxoimidazolidin-1-yl]methyl}-N-[(5-chloropyridin-2-yl)methyl]-N-methylpyridine-3-carboxamide] registered a concentration for half-maximal inhibition (IC50) of 43.7 nM.

In turn, `CC(C)CCC1(c2ccccc2)NC(=N)N(Cc2cncc(C(=O)N(C)Cc3ccc(C#N)cc3)c2)C1=O` (stereo not drawn) [Example 83, N-(4-cyanobenzyl)-5-{[2-imino-4-(3-methylbutyl)-5-oxo-4-phenylimidazolidin-1-yl]methyl}-N-methylpyridine-3-carboxamide] came in with an IC50 of 50.4 nM.

`CC(C)CC1(c2ccccc2)NC(=N)N(Cc2cncc(C(=O)N(C)Cc3ccc(C#N)cc3)c2)C1=O` (stereo not drawn) [Example 84, N-(4-cyanobenzyl)-5-{[2-imino-4-(2-methylpropyl)-5-oxo-4-phenylimidazolidin-1-yl]methyl}-N-methylpyridine-3-carboxamide]: it took 93 nM to reach half-maximal inhibition (IC50).

Molecule `CN(Cc1ccc(C#N)cc1)C(=O)c1ccnc(CN2C(=N)NC(c3ccccc3)(c3ccccc3)C2=O)c1` [Example 85, N-(4-cyanobenzyl)-2-[(2-imino-5-oxo-4,4-diphenylimidazolidin-1-yl)methyl]-N-methylpyridine-4-carboxamide] displayed an IC50 of 5.4 nM.

With `CN(Cc1ccc(Cl)cc1)C(=O)c1ccnc(CN2C(=N)NC(c3ccccc3)(c3ccccc3)C2=O)c1` [Example 86, N-(4-chlorobenzyl)-2-[(2-imino-5-oxo-4,4-diphenylimidazolidin-1-yl)methyl]-N-methylpyridine-4-carboxamide], it took 7.72 nM to reach half-maximal inhibition (IC50).

With `CC(C)CC1(c2ccccc2)NC(=N)N(Cc2cc(C(=O)N(C)Cc3ccc(C#N)cc3)ccn2)C1=O` (stereo not drawn) [Example 87, N-(4-cyanobenzyl)-2-{[2-imino-4-(2-methylpropyl)-5-oxo-4-phenylimidazolidin-1-yl]methyl}-N-methylpyridine-4-carboxamide], 15.5 nM corresponded to half-maximal inhibition (IC50).

Regarding `CC(C)CCC1(c2ccccc2)NC(=N)N(Cc2cc(C(=O)N(C)Cc3ccc(C#N)cc3)ccn2)C1=O` (stereo not drawn) [Example 88, N-(4-cyanobenzyl)-2-{[2-imino-4-(3-methylbutyl)-5-oxo-4-phenylimidazolidin-1-yl]methyl}-N-methylpyridine-4-carboxamide], the concentration for half-maximal inhibition (IC50) stood at 17.1 nM.

On to `CN(Cc1ccc(Cl)cc1)C(=O)c1ccnc(CN2C(=N)NC(c3ccc(F)cc3)(c3ccc(F)cc3)C2=O)c1` [Example 89, 2-{[4,4-bis(4-fluorophenyl)-2-imino-5-oxoimidazolidin-1-yl]methyl}-N-(4-chlorobenzyl)-N-methylpyridine-4-carboxamide], for which the midpoint of inhibition, the IC50, lay at 18.9 nM.

Turning to `CN(Cc1ccc(F)cc1)C(=O)c1ccnc(CN2C(=N)NC(c3ccccc3)(c3ccccc3)C2=O)c1` [Example 90, N-(4-fluorobenzyl)-2-[(2-imino-5-oxo-4,4-diphenylimidazolidin-1-yl)methyl]-N-methylpyridine-4-carboxamide], inhibition was half-maximal at 24.6 nM (IC50). This IC50 and that of the molecule before are within 1.5-fold of each other.
